Results on 9 compounds are retold here after PubChem BioAssay (NCI).

Holding throughout (assay): NCI tumour cell line growth inhibition, 48 h
Assay [1] relates to ACHN renal.
Assay [2] has as its system HCC-2998 colon.
Assay [3] deals with HCT-15 colon.
The test system of assay [4] is M14 melanoma.
In assay [5] the test system is OVCAR-3 ovarian.
In assay [6] the test system is OVCAR-8 ovarian.
For assay [7], the system named is SK-MEL-28 melanoma.
For assay [8], the system named is TK-10 renal.

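A five-concentration, 48-hour dose response in 96-well plates underlies each endpoint, interpolated linearly between surrounding concentrations. GI50: concentration for 50% inhibition of growth. TGI denotes the concentration required for complete inhibition of growth.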

For the compound `[O]=[Sn]([CH]1CCCCC1)[CH]1CCCCC1`, the GI50 in assay [1] is 0.309 µM; in assay [2] it was 0.245 µM; in assay [3] it was 0.197 µM; in assay [4] it was 0.239 µM; in assay [5], 0.203 µM; in assay [6], 0.298 µM. Also, the GI50 in assay [7] is 0.279 µM; in assay [8], 0.267 µM. The TGI in assay [1] amounted to 1.12 µM; in assay [2], 0.693 µM; in assay [3] it was 0.691 µM; in assay [4], 0.677 µM; in assay [5] it was 0.549 µM; in assay [6] it was 1.17 µM. The TGI in assay [7] and in assay [8] was 1.14 µM in each case.
`CCn1c(-c2nonc2N)nc2ccccc21`: the GI50 in assay [1], in assay [2], in assay [3], in assay [4], in assay [5] and in assay [6] was greater than 25 µM each time. Also, the figures for the GI50 in assay [7] and in assay [8] were greater than 25 µM and 7.32 µM, respectively. Also, the TGI in assay [1], in assay [2], in assay [3], in assay [4], in assay [5] and in assay [6] was greater than 25 µM each time. Moreover, the TGI in assay [7] and in assay [8] was greater than 25 µM throughout.
Consider `Clc1ccc2c(NCCNc3nc(N4CCOCC4)nc4ccccc34)ccnc2c1`, for which the GI50 in assay [1] was 1.75 µM; in assay [2] it was 2.67 µM; in assay [3], 2.49 µM; in assay [4] it was 1.94 µM; in assay [5] it was 1.84 µM; in assay [6], 2.18 µM. In addition, the GI50 in assay [7] was 2.1 µM; in assay [8] it was 1.83 µM. Also, the TGI was determined as 3.49 µM in assay [1]; 6.54 µM in assay [2]; 8.47 µM in assay [3]; 3.89 µM in assay [4]; 3.53 µM in assay [5]; 5.24 µM in assay [6]. In addition, the TGI in assay [7] amounted to 4.12 µM; in assay [8] it was 3.39 µM.
For the compound `COc1ccc2nc3ccccc3c(NCCNCCO)c2c1`, the GI50 in assay [1] was 0.478 µM; in assay [2] it was 0.898 µM; in assay [3], 2.04 µM; in assay [4] it was 0.709 µM; in assay [5] it was 0.624 µM; in assay [6], 0.528 µM. In addition, the results for the GI50 in assay [7] and in assay [8] were 1.19 µM and 0.716 µM, respectively. Besides, the TGI in assay [1] worked out at 21.1 µM; in assay [2] it was 2.5 µM; in assay [3], 22.2 µM; in assay [4], 2.24 µM; in assay [5] it was 2.77 µM; in assay [6], 8.88 µM. Moreover, the values for the TGI in assay [7] and in assay [8] were 3.08 µM and 9.96 µM, respectively.
For `S=c1ssnc1-c1cc2ccccc2o1`, the GI50 in assay [1] is 15.2 µM; in assay [2] it was 16.4 µM; in assay [3], 11.5 µM; in assay [4], 16.5 µM; in assay [5] it was 15.6 µM; in assay [6], 11.3 µM. Further, the GI50 in assay [7] was 15.1 µM; in assay [8] it was 22.1 µM. In addition, the TGI in assay [1] was found to be 38.8 µM; in assay [2] it was 34.4 µM; in assay [3], 25.5 µM; in assay [4] it was 60.7 µM; in assay [5], 49.2 µM; in assay [6] it was 29.4 µM. The TGI was 30 µM in assay [7] and 45.9 µM in assay [8].
For `CCSC[C@@H]1C[C@](O)(c2ccccc2)[C@@H](c2ccccc2)O1`, the GI50 in assay [1] is greater than 88 µM; in assay [2], greater than 100 µM; in assay [3], 82.1 µM; in assay [4], greater than 90.1 µM; in assay [5], 70.1 µM; in assay [6] it was greater than 100 µM. For the same compound, the GI50 in assay [7] was greater than 100 µM; in assay [8], greater than 91.7 µM. The TGI in assay [1], in assay [2], in assay [3], in assay [4], in assay [5] and in assay [6] was greater than 100 µM throughout. In addition, the TGI in assay [7] and in assay [8] was greater than 100 µM throughout.
On to `O=c1c(I)c[nH]cc1I`, for which the GI50 in assay [1], in assay [2], in assay [3], in assay [4], in assay [5] and in assay [6] was greater than 100 µM each time. Besides, the GI50 in assay [7] and in assay [8] was greater than 100 µM each time. Further, the TGI in assay [1], in assay [2], in assay [3], in assay [4], in assay [5] and in assay [6] was greater than 100 µM in each case. In addition, the TGI in assay [7] and in assay [8] was greater than 100 µM in each case.
Consider `[Br][Pb]([c]1ccccc1)([c]1ccccc1)[c]1ccccc1`, for which the GI50 in assay [1] was 0.175 µM; in assay [2], 0.191 µM; in assay [3], 0.148 µM; in assay [4] it was 0.195 µM; in assay [5] it was 0.139 µM; in assay [6] it was 0.186 µM. In addition, the GI50 in assay [7] and in assay [8] was 0.175 µM throughout. Also, the TGI in assay [1] amounted to 0.328 µM; in assay [2], 0.412 µM; in assay [3] it was 0.329 µM; in assay [4] it was 0.409 µM; in assay [5] it was 0.272 µM; in assay [6], 0.384 µM. Besides, the TGI in assay [7] is 0.342 µM; in assay [8], 0.36 µM.
On to `CCN(CC)c1ccc(/C=N/NC(=O)Cc2ccc(Nc3ccnc(C(F)(F)F)c3)cc2)c(O)c1`, for which the GI50 in assay [1] is 0.399 µM; in assay [2], 1.17 µM; in assay [3], 0.373 µM; in assay [4], 0.637 µM; in assay [5], 0.473 µM; in assay [6], 0.757 µM. Further, the GI50 in assay [7] is 1.1 µM; in assay [8], 0.461 µM. In addition, the TGI in assay [1] is greater than 26.9 µM; in assay [2], greater than 100 µM; in assay [3], greater than 100 µM; in assay [4] it was 5.93 µM; in assay [5], greater than 100 µM; in assay [6] it was greater than 100 µM. Also, the TGI in assay [7] was greater than 78 µM; in assay [8], greater than 100 µM.
